From ChEMBL document CHEMBL1201862, “PubChem BioAssay data set” (2004)
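Test compounds were applied to cells in 96-well plates for 48 hours at 5 doses. At the GI50, growth is halved.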 Activity calls are given as the source filed them. No stated cut-off is given here; in the data, active = GI50 up to about 1.1 µM and inactive = higher.

Assays:
Experiment in all cases: NCI-60 cell line screen, 48 h
HT-29 = tested on: HT-29
HOP-92 = tested on: HOP-92
MDA-MB-435 = tested on: MDA-MB-435
RPMI-8226 = tested on: RPMI-8226
UO-31 = tested on: UO-31
SK-MEL-5 = tested on: SK-MEL-5
SN12C = tested on: SN12C
HCT-15 = tested on: HCT-15
K562 = tested on: K562
EKVX = tested on: EKVX
HCC 2998 = tested on: HCC 2998
A498 = tested on: A498
NCI-H460 = tested on: NCI-H460
KM12 = tested on: KM12
SK-MEL-28 = tested on: SK-MEL-28
HL-60 = tested on: HL-60
MCF7 = tested on: MCF7
OVCAR-5 = tested on: OVCAR-5
SNB-19 = tested on: SNB-19
DU-145 = tested on: DU-145
HCT-116 = tested on: HCT-116
CCRF-CEM = tested on: CCRF-CEM
OVCAR-4 = tested on: OVCAR-4
HOP-62 = tested on: HOP-62
M14 = tested on: M14
OVCAR-3 = tested on: OVCAR-3
SF-295 = tested on: SF-295
SF-539 = tested on: SF-539
ACHN = tested on: ACHN
CAKI-1 = tested on: CAKI-1
IGROV-1 = tested on: IGROV-1
U-251 = tested on: U-251
MOLT-4 = tested on: MOLT-4
NCI-H522 = tested on: NCI-H522
SNB-75 = tested on: SNB-75
OVCAR-8 = tested on: OVCAR-8
MDA-N = tested on: MDA-N
NCI-H226 = tested on: NCI-H226
PC-3 = tested on: PC-3
T47D = tested on: T47D
Hs-578T = tested on: Hs-578T
SR = tested on: SR
UACC-257 = tested on: UACC-257
786-0 = tested on: 786-0
SK-MEL-2 = tested on: SK-MEL-2
LOX IMVI = tested on: LOX IMVI
NCI/ADR-RES = tested on: NCI/ADR-RES
SF-268 = tested on: SF-268
MDA-MB-231 = tested on: MDA-MB-231
SW-620 = tested on: SW-620
BT-549 = tested on: BT-549
COLO 205 = tested on: COLO 205
UACC-62 = tested on: UACC-62
TK-10 = tested on: TK-10
NCI-H23 = tested on: NCI-H23
A549 = tested on: A549
Malme-3M = tested on: Malme-3M
SK-OV-3 = tested on: SK-OV-3

C/C(=N\NC(=S)N1CCOCC1)c1nc2cccnc2[nH]1
GI50 (HT-29): 37.2 µM (inactive)
GI50 (HOP-92): 14.1 µM (inactive)
GI50 (MDA-MB-435): > 100 µM (inactive)
GI50 (RPMI-8226): 42.6 µM (inactive)
GI50 (UO-31): 17.5 µM (inactive)
GI50 (SK-MEL-5): 27.6 µM (inactive)
GI50 (SN12C): 74 µM (inactive)
GI50 (HCT-15): 53.5 µM
GI50 (K562): 51.9 µM (inactive)
GI50 (EKVX): 19.5 µM (inactive)
GI50 (HCC 2998): 78.3 µM (inactive)
GI50 (A498): > 100 µM (inactive)
GI50 (NCI-H460): 31.4 µM (inactive)
GI50 (KM12): 67 µM (inactive)
GI50 (SK-MEL-28): 74.1 µM (inactive)
GI50 (HL-60): 24.5 µM (inactive)
GI50 (MCF7): 30.5 µM (inactive)
GI50 (OVCAR-5): 59.6 µM (inactive)
GI50 (SNB-19): 21.9 µM (inactive)
GI50 (DU-145): 39.9 µM (inactive)
GI50 (HCT-116): 27.8 µM (inactive)
GI50 (CCRF-CEM): 30.3 µM (inactive)
GI50 (OVCAR-4): 13.7 µM (inactive)
GI50 (HOP-62): 24.9 µM (inactive)
GI50 (M14): 68.2 µM (inactive)
GI50 (OVCAR-3): 31 µM (inactive)
GI50 (SF-295): 23.8 µM (inactive)
GI50 (SF-539): 19.3 µM (inactive)
GI50 (ACHN): 25.4 µM (inactive)
GI50 (CAKI-1): 66.8 µM (inactive)
GI50 (IGROV-1): 47.1 µM (inactive)
GI50 (U-251): 21.6 µM (inactive)
GI50 (MOLT-4): 32.2 µM (inactive)
GI50 (NCI-H522): 18.8 µM (inactive)
GI50 (SNB-75): 18.2 µM (inactive)
GI50 (OVCAR-8): 21.4 µM (inactive)
GI50 (MDA-N): > 100 µM (inactive)
GI50 (NCI-H226): 38.5 µM (inactive)
GI50 (PC-3): 27.9 µM (inactive)
GI50 (T47D): 29.4 µM (inactive)
GI50 (Hs-578T): 39.2 µM (inactive)
GI50 (SR): 49.5 µM (inactive)
GI50 (UACC-257): 26 µM (inactive)
GI50 (786-0): > 10 µM (inactive)
GI50 (SK-MEL-2): 17.9 µM (inactive)
GI50 (LOX IMVI): 29.4 µM (inactive)
GI50 (NCI/ADR-RES): 80.5 µM (inactive)
GI50 (SF-268): 24.8 µM (inactive)
GI50 (MDA-MB-231): 28.9 µM (inactive)
GI50 (SW-620): 43 µM (inactive)
GI50 (BT-549): 11.2 µM (inactive)
GI50 (COLO 205): 36.9 µM (inactive)
GI50 (UACC-62): 37.7 µM (inactive)
GI50 (TK-10): 31.8 µM (inactive)
GI50 (NCI-H23): 35.2 µM (inactive)
GI50 (A549): 30.7 µM (inactive)
GI50 (Malme-3M): > 100 µM (inactive)
GI50 (SK-OV-3): 36.6 µM (inactive)
